# Like-named read-outs stand apart in the source and are kept apart here.
# How the values were obtained:
# gamma secretase [1] = test: Surface BCMA by flow cytometry / inhibition of gamma secretase activity in Molp-8 cells exposed to PF-03084014; format: cell-based, human
# Protocol: (§1) The BCMA-expressing multiple myeloma cell lines MM.1S and Molp-8 (ATCC), and the BCMA-negative acute lymphocytic leukemia cell line REH (ATCC) were expanded in RPMI medium containing L-glutamine and 10% FBS in a humidified CO2 incubator set to 37 degrees. The gamma secretase inhibitor (GSI) PF-03084014 (nirogacestat in the hydrobromide salt form, Sigma-Aldrich, #PZ0298) was diluted in H2O at mg/mL and further diluted in cell culture medium as needed. Cells were cultured in the presence of increasing concentrations of PF-03084014 or vehicle (control) in a humidified CO2 incubator set to 37° C. for 4 hours or 24 hours. Cells were then harvested by centrifugation for 5 min at 400×g and stained with a phycoerythrin (PE)-labeled anti-human BCMA antibody (BioLegend, Cat #357504) for 30 min at 4° C. Samples were analyzed by flow cytometry using a Cytoflex flow cytometer (Beckman Coulter) and expression levels of BCMA (mean fluorescence intensity, MFI) were determined using FlowJo version 10.4.1. Fold-change in surface BCMA was calculated as the MFI value of GSI-treated cells divided by the MFI value of cells receiving vehicle control. Maximal (100%) inhibition of gamma-secretase activity was defined as the maximal fold-change in surface BCMA. To obtain half-maximal effective concentration (EC50) values, gMFI was plotted as a function of the logarithm of the concentration of PF-03084014. The data was then fitted using a non-linear regression (four-parameter logistic curve) function and EC50 was calculated using GraphPad.
# BCMA-negative REH cells = test: Surface BCMA by flow cytometry in BCMA-negative REH control cells exposed to PF-03084014; format: cell-based, human; conditions: REH negative control cell line, 4-hour treatment
# Protocol: as §1, with “To obtain half-maximal effective concentration (EC50) values, gMFI was plotted as a function of the logarithm of the concentration of PF-03084014.” left out
# gamma secretase [2] = test: Surface BCMA by flow cytometry / inhibition of gamma secretase activity in MM.1S cells exposed to PF-03084014; format: cell-based, human
# Protocol: as §1
# (§2) In a separate experiment, cytolytic activities of BCMA CAR-T cells were evaluated after the target multiple myeloma cells were first pre-incubated with PF-03084014. FIG. 25A depicts the cell surface expression level of BCMA on the multiple myeloma cell line MM.1S and the BCMA negative control cell line […] after a 24-hour culture in the presence of increasing concentrations of the gamma secretase inhibitor PF-03084014. The data is shown as mean fluorescence intensity (MFI) values of BCMA. FIG. 25B depicts the cytolytic activity of BCMA CAR T cells against MM.1S cells previously treated with PF-03084014 for 24 hours. In the cytolytic assay, BCMA CAR T cells and target cells were co-cultured at different effector to target (E:T) ratios for 24 hours and residual target cell viability was measured using bioluminescence. Results are shown as mean+/−SEM.
# [3] = 100 mg BID, solid tumor patients; cited from earlier work
# [4] = Phase 1 dose-finding study (A8641014) of nirogacestat, minimum concentration; format: in vivo, human; conditions: 100 mg BID, solid tumor patients; conversion of ng/mL value
# Protocol: See, e.g., FIG. 22C. […] A dose of 100 mg BID nirogacestat is expected to maintain serum concentrations of nirogacestat at or above the levels required to prevent the cleavage of BCMA by gamma secretase, thereby leading to reduced soluble BCMA and increased membrane-bound BCMA.
# MM.1S cells = test: Cytolytic activity of BCMA CAR T cells against target cells pre-incubated with PF-03084014; format: cell-based, human; conditions: MM.1S target cells pre-incubated with PF-03084014 for 24 hours, then 24 hours co-culture (FIG. 25B)
# Protocol: as §2
# BCMA CAR-T cells = test: Target-dependent BCMA CAR-T cell proliferation in the presence of PF-03084014 (co-culture with REH-BCMA cells); format: cell-based, human; conditions: Day 5, up to the highest concentration (FIG. 23)
# From the text: A BCMA-negative acute lymphocytic leukemia cell line (REH) was genetically modified to overexpress BCMA with the use of a lentiviral vector encoding the human BCMA protein under regulatory control of the EF1alpha promoter (REH-BCMA cells). BCMA-overexpressing cells co-expressing luciferase and green fluorescent protein (GFP) were then created by transducing the cells with a Luc2AGFP/Blasticidin lentiviral vector following the manufacturer's recommendations. The exemplary BCMA CAR tested in the experiments comprises the VH amino acid sequence of SEQ ID NO: 33 and VL amino acid sequence of SEQ ID NO: 34). The BCMA CAR-T cells were generated and cryopreserved as previously described (Sommer et al., Molecular Therapy 2019, 27 (6): 1126-1138), thawed, and used in the assays as follows. Briefly, 5×10^5 CAR^+ T cells were co-cultured with 2×10^6 REH-BCMA cells in 2.5 mL of target cell medium (RPMI with L-glutamine, 10% FBS) without IL-2 using G-Rex 24-well plates. PF-03084014 was added to cells at increasing concentrations whereas the control wells received vehicle. […] On Day 5, cells were counted and the percentage of residual target cells and CAR-T cells were determined by flow cytometry analysis. […] Target-cell dependent proliferation/persistence in the presence or absence of PF-03084014 was determined by dividing the total number of CAR^+ cells by the starting cell number (5×10^5).
# [5] = tested on: MM.1S, Molp-8 and REH-BCMA cells; test: In vitro cytolytic activity of BCMA CAR-T cells in the presence of PF-03084014 (luciferase); format: cell-based, human; conditions: PF-03084014 0.01 μM to 10 μM added during 24 hour co-culture, E:T 1:3, 1:1, 3:1 (FIG. 24)
# Protocol: The multiple myeloma cell lines MM.1S and Molp-8 and the BCMA-overexpressing REH cell line (REH-BCMA cells) were used in these assays. The target cell lines have been modified to constitutively express the luciferase gene which allows assessment of cell viability via luminescence. The cytotoxic activity of BCMA CAR-T cells was determined by measuring the reduction of luminescence signal from live target cells after 24 hour co-culture with BCMA CAR-T cells at increasing effector to target (E:T) ratios (1:3, 1:1, 3:1). Briefly, 2×10^4 luciferase-expressing target cells were co-cultured with BCMA CAR-T cells at defined E:T ratios in target cell culture medium (RPMI with L-glutamine, 10% FBS) without IL-2. The GSI PF-03084014 was added to wells at increasing concentrations (0.01 μM to 10 μM) and cells were cultured in a humidified CO2 incubator set to 37° C. for 24 hours. Following the incubation period, 100 μL of Bright-GLO reagent (Promega) were added and luminescence was read on a luminometer (Spectramax; Molecular Devices). Relative luminescence units (RLU) were converted to percentage of lysed target cells using the formula 100×[1−(RLUtest/RLUcontrol)]. Untreated target cells were used to determine RLU control.
# [6] = 4-hour treatment, dose-dependent (FIG. 22A)
structure (smiles),measurement,setting,value
"CCC[C@H](N[C@H]1CCc2cc(F)cc(F)c2C1)C(=O)Nc1cn(C(C)(C)CNCC(C)(C)C)cn1 [PF-03084014, nirogacestat]",Levels of BCMA on the cell surface,gamma secretase [1]; [6],increased levels of BCMA detected on the cell surface
same,Inhibition of gamma secretase activity,gamma secretase [1]; 24 hours treatment (FIG. 22C),dose-dependent inhibition of gamma secretase activity
same,EC50,"gamma secretase [1]; 24 hours treatment, flow cytometry of surface BCMA, read-out: EC50 on gamma secretase (surface BCMA) determined using the Molp-8 cell line",22.4 nM
same,Dose-dependent increase of BCMA on the cell surface,BCMA-negative REH cells,not seen
same,Levels of BCMA on the cell surface,gamma secretase [2]; [6],increased levels of BCMA detected on the cell surface
same,Levels of BCMA on multiple myeloma cells (MFI),gamma secretase [2]; 24 hours incubation (FIG. 25A),increased levels of BCMA
same,Inhibition of gamma secretase activity,gamma secretase [2]; 24 hours treatment (FIG. 22C),dose-dependent inhibition of gamma secretase activity
same,EC50,"gamma secretase [2]; 24 hours treatment, flow cytometry of surface BCMA, read-out: EC50 on gamma secretase (surface BCMA) determined using the MM.1S cell line",0.12 nM
same,Minimum concentration (Cmin),[3],232 ng/mL
same,Minimum concentration (Cmin),[4],approximately 480 nM
same,Effect on cytolytic activity of BCMA CAR T cells,MM.1S cells,enhanced cytolytic effect
same,Effect on target-dependent BCMA CAR-T cell expansion,BCMA CAR-T cells,did not negatively affect CAR-T cell expansion
same,Effect on target cell killing by BCMA CAR-T cells,[5],enhanced target cell killing was not observed

# Source: US20230112444A1, “COMBINATION THERAPIES OF CHIMERIC ANTIGEN RECEPTORS TARGETING B-CELL […] AND GAMMA SECRETASE INHIBITORS” (priority 2020, published 2023)
